Results taken from article PMC6308302, “Identification of Pharmacokinetic Markers for Guanxin Danshen Drop Pills in Rats by Combination of Pharmacokinetics, Systems Pharmacology, and Pharmacodynamic Assays” (Frontiers in Pharmacology, 2018).
“Also recorded” adds a separate entry of the source. Marks after values point to notes of the source that are not given here.

What was measured:
[1] = Stability tests in rat plasma (QC samples, HPLC-MS); details: n=5
Description: Accuracy and precision were expressed by relative error (RE) and coefficient of variance (RSD), respectively.

[2] = Aqueous solubility test (vortexing in water); type: physicochemical; details: thermodynamic from solid; determined, water, 25 °C, 1 atm
Description: Aqueous solubility (S) test of the 17 ingredients was performed by vortexing 10 mg of each ingredient in […] water in a test tube at ambient temperature and 1 atm. After vortexing for 5 min, if the solution is clear, the tested object will be considered as soluble in water. In silico assessment of the physicochemical properties governing permeation and intestinal absorption was carried out for the 17 ingredients studied. Theory aqueous solubility (S) was calculated with ALOGPS 2.1 online software via the Virtual Computational Chemistry Laboratory service (Chemoinformatics Group, Neuherberg, Germany) (VCCLAB^1). The octanol–water partition coefficient (cLogP), the total hydrogen bond count (donors and acceptors), and topological polar surface area (TPSA) were determined using the Molinspiration Property Calculator (Molinspiration Cheminformatics, Bratislava, Slovak Republic^2). Lipinski’s rule of 5 was used to predict the permeability of the compound ([Lipinski et al., 2001]).

[3] = Multiple component PK study in rat plasma after p.o. GDDP (HPLC-MS); details: for AUC(0-inf) / AUC(0-t) / MRT inf / MRT last / Tmax / Cmax / half-life: Sprague-Dawley, rat, plasma, po
[4] = test system: isoprenaline-induced MI in mice; experiment: In vivo anti-MI study: isoprenaline-induced myocardial injury (ECG, H&E histology)
Caco-2 cell monolayers = details: ref Lu et al., 2008, Liu et al., 2009, Hu et al., 2014, Bowles et al., 2017, cited from earlier work
[5] = 24h in auto-sampler vials, spiked 2 ng/mL
[6] = 24h in auto-sampler vials, spiked 400 ng/mL
[7] = 24h in auto-sampler vials, spiked 1600 ng/mL
[8] = Placing plasma for 6h at 4°C, spiked 2 ng/mL
[9] = Placing plasma for 6h at 4°C, spiked 400 ng/mL
[10] = Placing plasma for 6h at 4°C, spiked 1600 ng/mL
[11] = three freeze-thaw cycles, rat plasma, spiked 2 ng/mL
[12] = three freeze-thaw cycles, rat plasma, spiked 400 ng/mL
[13] = three freeze-thaw cycles, rat plasma, spiked 1600 ng/mL
[14] = Caco-2 cell monolayers, from literature

Question: Which “Stability: Measured” value [1, 5] does the source give for `CC(C)=CCC[C@](C)(O[C@@H]1O[C@H](CO)[C@@H](O)[C@H](O)[C@H]1O)[C@H]1CC[C@]2(C)[C@@H]1[C@H](O)C[C@@H]1[C@@]3(C)CC[C@H](O)C(C)(C)[C@@H]3[C@@H](O[C@@H]3O[C@H](CO)[C@@H](O)[C@H](O)[C@H]3O[C@@H]3OC[C@@H](O)[C@H](O)[C@H]3O)C[C@]12C` [R1, notoginsenoside R1] here?
Answer: The value was 1.89 ± 0.51 ng/mL.

Question: What about the “Stability: RE” value [1, 5] of the same molecule?
Answer: The value was -5.63%.

Question: What about the “Stability: Measured” value [1, 6] of the same molecule?
Answer: Its value is 395.76 ± 7.32 ng/mL.

Question: What about the “Stability: RE” value [1, 6] of the same molecule?
Answer: Its value is -1.06%.

Question: What about the “Stability: Measured” value [1, 7] of the same molecule?
Answer: Its value is 1619.10 ± 82.22 ng/mL.

Question: And the “Stability: RE” value [1, 7]?
Answer: Its value is 1.19%.

Question: And the “Stability: Measured” value [1, 8]?
Answer: Its value is 1.75 ± 0.34 ng/mL.

Question: What about the “Stability: RE” value [1, 8] of the same molecule?
Answer: The value was -12.56%.

Question: And the “Stability: Measured” value [1, 9]?
Answer: The value was 387.55 ± 18.40 ng/mL.

Question: And the “Stability: RE” value [1, 9]?
Answer: The value was -3.11%.

Question: And the “Stability: Measured” value [1, 10]?
Answer: The value was 1698.54 ± 105.94 ng/mL.

Question: What about the “Stability: RE” value [1, 10] of the same molecule?
Answer: The value was 6.16%.

Question: And the “Stability: Measured” value [1, 11]?
Answer: The value was 2.15 ± 0.21 ng/mL.

Question: What about the “Stability: RE” value [1, 11] of the same molecule?
Answer: Its value is 7.54%.

Question: What about the “Stability: Measured” value [1, 12] of the same molecule?
Answer: The value was 395.28 ± 15.09 ng/mL.

Question: What about the “Stability: RE” value [1, 12] of the same molecule?
Answer: Its value is -1.18%.

Question: And the “Stability: Measured” value [1, 13]?
Answer: Its value is 1784.04 ± 71.20 ng/mL.

Question: And the “Stability: RE” value [1, 13]?
Answer: Its value is 11.50%.

Question: What about the solubility at 5 min [2] of the same molecule?
Answer: Its solubility at 5 min is > 10000 µg/mL.

Question: What about the “determination in rat plasma at the planned successive PK time points” value ([3]; GDDP 0.8 g/kg p.o., 5, 10, 15, 30, 45, 60, and 120 min, LOQ 1.0–1.4 ng/mL) of the same molecule?
Answer: The value was “could be determined”.

Question: And the “detection in rat plasma” value ([3]; GDDP 0.8 g/kg p.o., at 5, 10, 15, 30, 45, or 60 min, LOD 0.5–0.7 ng/mL)?
Answer: The value was “could be detected”.

Question: And the AUC(0-inf) ([3]; 0.4 g/kg)?
Answer: The AUC(0-inf) was 171 ± 92.6 ng·h/mL.

Question: What about the AUC(0-t) ([3]; 0.4 g/kg) of the same molecule?
Answer: Its AUC(0-t) is 146 ± 58.9 ng·h/mL.

Question: And the MRT inf ([3]; 0.4 g/kg)?
Answer: Its MRT inf is 78.6 ± 6.6 min.

Question: What about the MRT last ([3]; 0.4 g/kg) of the same molecule?
Answer: The MRT last was 66 ± 7.2 min.

Question: What about the Tmax ([3]; 0.4 g/kg) of the same molecule?
Answer: Its Tmax is 30.6 ± 42 min.

Question: And the Cmax ([3]; 0.4 g/kg, Cmax, rat plasma, GDDP 0.4 g/kg p.o. (Low dose group), n=3)?
Answer: Its Cmax is 167 ± 48 ng/mL.

Question: What about the half-life ([3]; 0.4 g/kg, t1/2 β, rat plasma, GDDP 0.4 g/kg p.o. (Low dose group), n=3) of the same molecule?
Answer: Its half-life is 34.2 min.

Question: And the AUC(0-inf) ([3]; 0.8 g/kg)?
Answer: The AUC(0-inf) was 168 ± 119 ng·h/mL.

Question: And the AUC(0-t) ([3]; 0.8 g/kg)?
Answer: Its AUC(0-t) is 120 ± 117 ng·h/mL.

Question: What about the MRT inf ([3]; 0.8 g/kg) of the same molecule?
Answer: The MRT inf was 115 ± 95.4 min.

Question: And the MRT last ([3]; 0.8 g/kg)?
Answer: Its MRT last is 53.4 ± 8.4 min.

Question: And the Tmax ([3]; 0.8 g/kg)?
Answer: The Tmax was 45 min.

Question: And the Cmax ([3]; 0.8 g/kg, Cmax (high / low plasma drug concentrations), rats, GDDP 0.4 and 0.8 g/kg p.o., classification)?
Answer: The Cmax was > 20 ng/mL.

Question: What about the Cmax ([3]; 0.8 g/kg, Cmax, rat plasma, GDDP 0.8 g/kg p.o. (High dose group), n=3) of the same molecule?
Answer: The Cmax was 259 ± 342 ng/mL.

Question: And the half-life ([3]; 0.8 g/kg, t1/2 β (fast / slow elimination type), rats, GDDP 0.4 and 0.8 g/kg p.o., classification)?
Answer: The half-life was < 120 min.

Question: And the half-life ([3]; 0.8 g/kg, t1/2 β, rat plasma, GDDP 0.8 g/kg p.o. (High dose group), n=3)?
Answer: The half-life was 27 min.

Question: What about the Cltot ([3]; rat plasma, GDDP 0.4 g/kg p.o. (Low dose group), n=3) of the same molecule?
Answer: The Cltot was 55.7 ± 30.2 mL/min/kg.

Question: And the Cltot ([3]; rat plasma, GDDP 0.8 g/kg p.o. (High dose group), n=3)?
Answer: Its Cltot is 181.5 ± 187.8 mL/min/kg.

Question: What about the “Histopathology of heart tissue (H&E)” value ([4]; 40 mg/kg p.o. for 7 days, isoprenaline-induced MI, 40 mg/kg) of the same molecule?
Answer: The value was “remarkably severe histological damage with extensive myocardial lysis and architecture wrecking; also recorded: extremely severe histological damage with extensive myocardial lysis and architecture wrecking”.

Question: What about the “ECG (lead II) findings on the fifth day of the trial” value ([4]; 40 mg/kg p.o., isoprenaline 5 mg/kg on days 4 and 5) of the same molecule?
Answer: The value was “T waves reversed or decreased”.

Question: What about the “Papp(apical→basolateral)” value (Caco-2 cell monolayers; [14]) of the same molecule?
Answer: The value was > 0.1^c ×10^-6 cm/s.

Question: And the “Papp(basolateral→apical)” value (Caco-2 cell monolayers; [14])?
Answer: Its value is > 0.1^c ×10^-6 cm/s.

Question: What about the “apparent permeability in Caco-2 cell monolayers” value (Caco-2 cell monolayers; previous results) of the same molecule?
Answer: Its value is > 10^-7 cm/s.
